Patent US9284580B2 (priority 2010, dated 2016)
Read-outs that look alike come from different tables or passages of the source.

Tests used:
[1] = test system: C. beijerinckii ATCC 55025
Text: Cell growth was monitored by measuring the optical density at 600 nm (OD600) of the culture broth.

P. putida = settings: several strains of P. putida; cited from earlier work
E. coli = settings: 2% (v/v) butanol; cited from earlier work
S. cerevisiae strains = settings: 1% (v/v) butanol; most S. cerevisiae strains; cited from earlier work

butanol
growth rate reduction ([1]; 1% (v/v) butanol): ~20%
growth rate reduction ([1]; 1.5% (v/v) butanol): ~85%
cell growth ([1]; 2% (v/v) butanol, no cell growth even after 10 days incubation): completely inhibited
tolerated butanol concentration (P. putida): up to 6 % (w/v)
growth (E. coli): no growth was observed
relative specific growth rate (S. cerevisiae strains): 60%
